Assay results from patent US20250213581A1, “COMBINATION THERAPY OF A PI3K INHIBITOR AND KRAS INHIBITOR AND METHODS OF USE THEREOF” (Totus Medicines Inc., priority 2022, published 2025).

Assays:
[1] = system: KYSE-410 (HN/Esophagus) cell lines; assay: Cell proliferation assay and synergy analysis, Compound I with Adagrasib; details: Homo sapiens, KYSE-410, 72 h, read-out: Ave inhibition (%)
Excerpt: The cell lines tested included: UM-UC-3 (bladder), KYSE-410 (HN/Esophagus), SW1463 (rectum), Calu-1 (Lung), NCI-H358 (Lung), SW837 (Rectum), SW756 (Cervix), NCI-H2122 (Lung), NCI-H1373 (Lung), NCI-H1792 (Lung), NCI-H23 (Lung), MIA PaCa-2 (Pancreas), and HCC44 (Lung).
Cells were recovered and maintained in appropriate culture media. The cells were harvested respectively during the logarithmic growth period. The cells were then resuspended and counted using a Vi cell counter (The cell viability was measured by trypan blue exclusion assay). The cells were then diluted and 80 μL of the cell suspensions were added to 96-well plates according to plate map with final cell density. Two duplicate plates were set up. One is for day 0 reading (T0) and the other was cultured in the incubator for reading at the end point. The incubated plates were incubated overnight in humidified incubator at 37° C. with 5% CO2.
At day 0, 20 μL of culture medium was added to each well for T0 reading. 10 μL of culture medium was added to each well for day 0 (T0) reading. Then, 50 μl of CellTiter-Glo® Reagent was added to each well. The contents were then mixed for 2 minutes on an orbital shaker to facilitate cell lysis. The plates were then allowed to incubate at room temperature for 10 minutes to stabilize luminescent signal. Luminescence was then recorded using an EnVision Multi Label Reader. […] The screening plates were then placed back into the incubator for the appropriate treatment time (3 days).
For the endpoint CTG reading, 50 μL of CellTiter-Glo® Reagent was added to each well. The contents were then mixed for 2 minutes on an orbital shaker to facilitate cell lysis. The plate was allowed to incubate at room temperature for 10 minutes to stabilize luminescent signal. Luminescence was then recorded using an EnVision Multi Label Reader. The surviving rate (%)=(LumTest article−LumMedium control)/(LumNone treated−LumMedium control)×100%.
A score higher than 5 indicates synergy, and a score less than −5 indicates antagonism.

Calu-1 (Lung) = assay: Cell proliferation assay (CellTiter-Glo, 3 days), single agent; type: cell-based; details: Homo sapiens, Calu-1, 72 h, read-out: Absolute IC50 (μM)
Method: (§1) Two duplicate plates were set up.
(§2) At day 0, 10 μL culture medium to each well for T0 reading. […] Compound I was diluted and 10 μL of each 10× compound I from working solutions for a concentration ranging from 10 μM to about 0.005 μM. Cisplatin was diluted to about 3.33 mM to about 150 nM.
(§3) IC50's were determined for each cell line.

NCI-H2122 (Lung) = assay: as above; type: cell-based; details: Homo sapiens, NCI-H2122, read-out: Average Inhibition (%) (N = 3)
Method: as §1, §2, §3

SW837 (Rectum) = assay: as above; type: cell-based; details: Homo sapiens, SW837, 72 h, read-out: Absolute IC50 (μM)
Method: as §1, §2, §3

NCI-H1373 (Lung) = assay: as above; type: cell-based; details: Homo sapiens
Method: as §1, §2, §3

NCI-H23 (Lung) = assay: as above; type: cell-based; details: Homo sapiens
Method: as §1, §2, §3

HCC44 (Lung) = assay: as above; type: cell-based; details: Homo sapiens, HCC44, read-out: Average Inhibition (%) (N = 3)
Method: as §1, §2, §3

UM-UC-3 (bladder) = assay: as above; type: cell-based; details: Homo sapiens, UMUC3, 72 h, read-out: Absolute IC50 (μM)
Method: as §1, §2, §3

NCI-H1792 (Lung) = assay: as above; type: cell-based; details: Homo sapiens
Method: as §1, §2, §3

NCI-H358 (Lung) = assay: as above; type: cell-based; details: 3 days treatment
Method: as §1, §2, §3

MIA PaCa-2 (Pancreas) = assay: as above; type: cell-based; details: Homo sapiens
Method: as §1, §2, §3

[2] = NCI-H1373, read-out: Average Inhibition (%) (N = 3)
[3] = NCI-H23, read-out: Average Inhibition (%) (N = 3)
[4] = NCI-H1792, read-out: Average Inhibition (%) (N = 3)
[5] = MIA PaCa-2, read-out: Average Inhibition (%) (N = 3)

C=CC(=O)NCC(=O)N1CCN(Cc2cc3c(N4CCOCC4)nc(-c4cnc(NC(=O)OC)cc4C(F)(F)F)nn3c2)CC1 [Compound I, methyl (5-(6-((4-(acryloylglycyl)piperazin-1-yl)methyl)-4-morpholinopyrrolo[2,1-f][1,2,4]triazin-2-yl)-4-(trifluoromethyl)pyridin-2-yl)carbamate]
inhibition at 0.0046 µM [1]: -1.36%
inhibition at 0.0137 µM [1]: 3.14%
inhibition at 0.0412 µM [1]: 9.47%
inhibition at 0.1235 µM [1]: 17.1%
inhibition at 0.3704 µM [1]: 29.4%
inhibition at 1.1111 µM [1]: 50.5%
inhibition at 3.3333 µM [1]: 65.8%
inhibition at 10 µM [1]: 71.3%
IC50 (Calu-1 (Lung)): > 10 µM
inhibition at 0.0046 µM (NCI-H2122 (Lung)): -2.13%
inhibition at 0.0137 µM (NCI-H2122 (Lung)): 2.34%
inhibition at 0.0412 µM (NCI-H2122 (Lung)): 13.6%
inhibition at 0.1235 µM (NCI-H2122 (Lung)): 24%
inhibition at 0.3704 µM (NCI-H2122 (Lung)): 36.5%
inhibition at 1.1111 µM (NCI-H2122 (Lung)): 45.6%
inhibition at 3.3333 µM (NCI-H2122 (Lung)): 52.5%
inhibition at 10 µM (NCI-H2122 (Lung)): 63.2%
IC50 (SW837 (Rectum)): > 10 µM
IC50 (NCI-H1373 (Lung); NCI-H1373, 72 h, read-out: Absolute IC50 (μM)): > 10 µM
inhibition at 0.0046 µM (NCI-H1373 (Lung); [2]): -3.29%
inhibition at 0.0137 µM (NCI-H1373 (Lung); [2]): -6.68%
inhibition at 0.0412 µM (NCI-H1373 (Lung); [2]): -5.53%
inhibition at 0.1235 µM (NCI-H1373 (Lung); [2]): -6.17%
inhibition at 0.3704 µM (NCI-H1373 (Lung); [2]): -5.69%
inhibition at 1.1111 µM (NCI-H1373 (Lung); [2]): -4.7%
inhibition at 3.3333 µM (NCI-H1373 (Lung); [2]): -9.75%
inhibition at 10 µM (NCI-H1373 (Lung); [2]): 8.28%
IC50 (NCI-H23 (Lung); NCI-H23, 72 h, read-out: Absolute IC50 (μM)): > 10 µM
inhibition at 0.0046 µM (NCI-H23 (Lung); [3]): 6.06%
inhibition at 0.0137 µM (NCI-H23 (Lung); [3]): 7.11%
inhibition at 0.0412 µM (NCI-H23 (Lung); [3]): 12.1%
inhibition at 0.1235 µM (NCI-H23 (Lung); [3]): 15.4%
inhibition at 0.3704 µM (NCI-H23 (Lung); [3]): 14.9%
inhibition at 1.1111 µM (NCI-H23 (Lung); [3]): 23.4%
inhibition at 3.3333 µM (NCI-H23 (Lung); [3]): 28.6%
inhibition at 10 µM (NCI-H23 (Lung); [3]): 37.2%
inhibition at 0.0046 µM (HCC44 (Lung)): -3.82%
inhibition at 0.0137 µM (HCC44 (Lung)): -4.27%
inhibition at 0.0412 µM (HCC44 (Lung)): -1.38%
inhibition at 0.1235 µM (HCC44 (Lung)): 1.74%
inhibition at 0.3704 µM (HCC44 (Lung)): 10.1%
inhibition at 1.1111 µM (HCC44 (Lung)): 19.7%
inhibition at 3.3333 µM (HCC44 (Lung)): 33.1%
inhibition at 10 µM (HCC44 (Lung)): 43.7%
IC50 (UM-UC-3 (bladder)): > 10 µM
IC50 (NCI-H1792 (Lung); NCI-H1792, 72 h, read-out: Absolute IC50 (μM)): > 10 µM
inhibition at 0.0046 µM (NCI-H1792 (Lung); [4]): -7.35%
inhibition at 0.0137 µM (NCI-H1792 (Lung); [4]): -1.4%
inhibition at 0.0412 µM (NCI-H1792 (Lung); [4]): 2.27%
inhibition at 0.1235 µM (NCI-H1792 (Lung); [4]): 6.64%
inhibition at 0.3704 µM (NCI-H1792 (Lung); [4]): 7.05%
inhibition at 1.1111 µM (NCI-H1792 (Lung); [4]): 12.2%
inhibition at 3.3333 µM (NCI-H1792 (Lung); [4]): 22.4%
inhibition at 10 µM (NCI-H1792 (Lung); [4]): 34%
inhibitory effect on cell proliferation (in words) (NCI-H358 (Lung)): substantial inhibitory effect
IC50 (MIA PaCa-2 (Pancreas); MIA PaCa-2, 72 h, read-out: Absolute IC50 (μM)): > 10 µM
inhibition at 0.0046 µM (MIA PaCa-2 (Pancreas); [5]): -5.76%
inhibition at 0.0137 µM (MIA PaCa-2 (Pancreas); [5]): -10.3%
inhibition at 0.0412 µM (MIA PaCa-2 (Pancreas); [5]): -8.58%
inhibition at 0.1235 µM (MIA PaCa-2 (Pancreas); [5]): -9.5%
inhibition at 0.3704 µM (MIA PaCa-2 (Pancreas); [5]): -5.32%
inhibition at 1.1111 µM (MIA PaCa-2 (Pancreas); [5]): 1.46%
inhibition at 3.3333 µM (MIA PaCa-2 (Pancreas); [5]): 13.9%
inhibition at 10 µM (MIA PaCa-2 (Pancreas); [5]): 30.6%
